Measurements as given in US20230277508A1, “USE OF COMPOUND AS CYP2E1 INHIBITOR” (SHANGHAI LING XI BIOTECHNOLOGY DEVELOPMENT CO., LTD., priority 2020, published 2023).

What was measured:
CYP2E1 = biological target: T1, CYP2E1 (Rattus norvegicus, UniProt P05182); assay: In vivo inhibition of metabolism of DEN by CYP2E1 in rats (toxicokinetics of DEN); parameters: species or system SD rats
T1 construct: from tissue; host or cells: whole animal (SD rats); endogenous enzyme in vivo
Description: Experimental method: An inhibitory effect of the compound SMI0 on CYP2E1 in rats was investigated by a self-controlled crossover experiment design. In a first round of experiments, DEN alone was intraperitoneally injected at 50 mg/kg (30 SD rats in total) in the first week; after a one-week interval, a second round of experiments were conducted as follows: each rat was first intragastrically administered with the compound SMI0 at a low, medium, or high dose (6 mg/kg, 30 mg/kg, or 150 mg/kg), and 5 min later, each rat was intraperitoneally injected with DEN at 50 mg/kg (10 rats were set for each of low, medium, and high doses); blood was collected at 2 min, 7 min, 15 min, and 30 min and 1 h, 2 h, 4 h, 6 h, 9 h, 12 h, 24 h, 36 h, 48 h, and 60 h; a DEN concentration in plasma was determined at different blood collection time points, and a toxicokinetic parameter of DEN was calculated; and plasma DEN was detected by high performance liquid chromatography (HPLC) as follows: 100 μL of plasma was added to 10 μL of perchloric acid, a resulting mixture was vortexed for 3 min and then centrifuged at 12,000 rpm for 10 min, and 10 μL of a resulting supernatant was collected and injected into an instrument, where the PLC was conducted with methanol:water=50:50 as a mobile phase and a detection wavelength of 240 nm.

[1] = test system: liver steatosis and hepatitis in mice caused by a high-fat diet; assay: Mouse liver steatosis and hepatitis model induced by a high-fat diet; format: in vivo, C57/6J mice; settings: 22 weeks, vs model group
Description: Experimental method: Healthy male C57/6J mice were fed with a high-fructose, high-fat, and high-cholesterol feed to prepare mouse liver steatosis and hepatitis models, and a control group was fed with a low-fat and low-sugar control feed. An SMI0 intervention group was divided into a low-dose intervention group and a high-dose intervention group, which were intragastrically administered with the compound SMI0 at 30 mg/kg and 150 mg/kg every day from the beginning of modeling to the 22nd week of modeling. At the end of the 22-week experiment, blood was collected from the orbit, a body weight was measured, and then the mice each were sacrificed. The weight and appearance of a liver (color, texture, and presence or absence of nodules of the liver) were recorded. Some liver specimens were subjected to HE staining and then observed, and a steatosis score of mice in each group was recorded; and Masson staining was conducted to evaluate a liver fibrosis status of mice, and an oil red O staining area percentage and an LCA staining inflammation score were determined (model group, n=8 mice; SMI0 compound low-dose group, […]).
The pathological results of HE staining of a liver tissue were subjected to quantitative scoring based on the following criteria to determine a steatosis severity:
The pathological results of Masson staining of a liver tissue were subjected to quantitative scoring based on the following criteria to determine a fibrosis severity: […]

A549 lung cancer cells = assay: Direct effect on proliferation of A549 lung cancer cells (CCK8); format: cell-based; settings: up to 100 μmol/L, 24 h
Description: (§1) Experimental method: Lewis lung cancer cells and A549 lung cancer cells in a logarithmic growth phase each were selected and inoculated into a 96-well plate at a concentration of 1*10^5 cells/mL, then 100 μL of a basic medium including SMI0 at different concentrations (0 μmol/L, 0.16 μmol/L, 0.8 μmol/L, 4 μmol/L, 20 μmol/L, and 100 μmol/L) was added to each well, and 24 h later, 10 μL of a CCK8 reagent was added to each well; and the cells were further cultivated for 2 h, and an absorbance OD value of each well was determined at 450 nm by a microplate reader. 3 replicates were set for each well, and an average was taken. The proliferation activity was calculated based on the OD value.

U251 glioma cells = assay: Direct effect on U251 glioma cells in vitro (CCK8); format: cell-based, human; settings: up to 128 μmol/L or 200 μmol/L
Description: as §1, with “GL261 murine glioma” for “Lewis lung cancer”, “U251 human glioma” for “A549 lung cancer”, “5*10^5” for “1*10^5”, “100 μL of a cell suspension was added to each well, and 12 h later, a medium was discarded; 200” for “100”, “([…])” for “(0 μmol/L, 0.16 μmol/L, 0.8 μmol/L, 4 μmol/L, 20 μmol/L, and 100 μmol/L)”

[2] = test system: GL261 cells / M2 microglial cells; assay: GL261 cells co-cultivated with M2 microglial cells; format: cell-based, mouse; settings: SMI0 50 μmol/L vs M2 microglial cell co-cultivation group
Description: Experimental method: 10 1-2 d newborn C57BL/6 WT mice and 6 CYP2E1^−/− mice were taken, primary microglial cells and astrocytes were collected and inoculated into 6-well plates, and 24 h later, culture supernatants were taken and co-cultivated with glioma cells. Experimental groups: control group; M2 model group; high-concentration, medium-concentration, and low-concentration SMI0 (50 μmol/L, 12.5 μmol/L, and 3.1 μmol/L) groups; and CYP2E1 gene-knockout group. 24 h later, supernatants were discarded; and […] and IL-13 each were added at 20 ng/mL to induce the transformation of microglial cells into the M2 type in the M2 model group and the high-concentration, medium-concentration, and low-concentration SMI0 groups, and different concentrations of SMI0 (50 μmol/L, 12.5 μmol/L, and 3.1 μmol/L) were also added in the intervention groups. The proliferation of glioma cells was determined by a CCK8 method, and an apoptosis proportion was determined by an Annexin V-FITC-PI apoptosis staining kit.

[3] = SMI0 high-dose 150 mg/kg ig daily
[4] = SMI0 low-dose 30 mg/kg ig daily

T1 sequence (P05182 whole entry): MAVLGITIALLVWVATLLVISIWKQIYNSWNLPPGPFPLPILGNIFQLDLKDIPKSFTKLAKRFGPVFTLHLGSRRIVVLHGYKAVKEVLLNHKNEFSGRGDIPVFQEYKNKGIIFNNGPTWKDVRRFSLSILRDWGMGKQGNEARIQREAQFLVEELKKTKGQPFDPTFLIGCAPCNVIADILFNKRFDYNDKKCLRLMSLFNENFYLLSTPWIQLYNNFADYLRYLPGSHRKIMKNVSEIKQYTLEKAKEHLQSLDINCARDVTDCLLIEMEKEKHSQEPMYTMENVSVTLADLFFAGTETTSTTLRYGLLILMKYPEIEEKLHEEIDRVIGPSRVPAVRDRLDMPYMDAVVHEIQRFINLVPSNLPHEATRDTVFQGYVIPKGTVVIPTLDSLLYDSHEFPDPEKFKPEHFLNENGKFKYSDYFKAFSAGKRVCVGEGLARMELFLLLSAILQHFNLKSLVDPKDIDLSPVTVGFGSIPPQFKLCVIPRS

Compound: CC(=O)c1scnc1C [SMI0]
- inhibition rate (CL of DEN) (CYP2E1; SMI0 high dose 150 mg/kg ig): 86.77%
- inhibition rate (CL of DEN) (CYP2E1; SMI0 low dose 6 mg/kg ig): 62.43%
- inhibition rate (CL of DEN) (CYP2E1; SMI0 medium dose 30 mg/kg ig): 80.42%
- liver inflammation level (number of LCA-positive cell staining foci) [1, 3]: significantly reduced
- oil red O staining area percentage [1, 3]: significantly reduced
- steatosis score [1, 3]: significantly reduced
- liver coefficient [1, 4]: significantly reduced
- oil red O staining area percentage [1, 4]: significantly reduced
- steatosis score [1, 4]: significantly reduced
- effect on the proliferation of A549 lung cancer cells (A549 lung cancer cells): no significant inhibitory effect
- effect on the proliferation of U251 glioma cells (U251 glioma cells): no significant inhibitory effect
- apoptosis of GL261 cells [2]: promoted
- proliferation of GL261 cells ([2]; P<0.001): significantly inhibited
